These results are taken from publication PMC6405874, “Development of a novel short 12-meric papiliocin-derived peptide that is effective against Gram-negative sepsis” (Scientific Reports, 2019).

No end group written: not given here.

The subject of one data set is A. baumannii (KCTC 2508). The note with it: 1% peptone, 2 × 10^6 CFU/mL, 16 h, 37 °C. As to the method:
(§1) The antimicrobial activities of Pap12 peptides were tested against four standard Gram-negative bacteria (E. coli, Pseudomonas aeruginosa, Acinetobacter baumannii, and Salmonella typhimurium), three standard Gram-positive bacteria (Staphylococcus aureus, Bacillus subtilis, and Staphylococcus epidermidis), and five MDR bacteria (MDREC CCARM 1229, MDRPA CCARM 2002, MDRAB CCARM 12035, MDRST CCARM 8007, and MRSA CCARM 3126) using the microbroth dilution method. The relative antibacterial activities were compared based on geometric means of MICs (GM).
(§2) Escherichia coli (KCTC 1682), Pseudomonas aeruginosa (KCTC 2004), Acinetobacter baumannii (KCTC 2508), Salmonella typhimurium (KCTC 1926), Bacillus subtilis (KCTC 3068), Staphylococcus aureus (KCTC 1621), and Staphylococcus epidermidis (KCTC 1917) were purchased from the Korean Collection for Type Cultures, Korea Research Institute of Bioscience & Biotechnology (Taejon, Korea). Clinical isolates of MDR E. coli (MDREC; CCARM 1229), P. aeruginosa (MDRPA; CCARM 2002), A. baumannii (MDRAB; CCARM 12035), S. typhimurium (MDRST; CCARM 8007), and S. aureus (MDRSA; CCARM 3126) were supplied by the Culture Collection of Antibiotic-Resistant Microbe (CCARM) at Seoul Women’s University in Korea. The E. coli K1 strain RS218 (O18:K1:H7) was kindly provided by Dr. Jang-Won Yoon of Kangwon National University (Gangwon-do, Korea).
(§3) Peptides were treated with 2 × 10^6 CFU/mL bacterial suspensions in 1% peptone media for 16 h at 37 °C.

For a further data set, the system named is B. subtilis (KCTC 3068). The note with it: 1% peptone, 2 × 10^6 CFU/mL, 16 h, 37 °C. As to the method: as §1, §2, §3
For the next data set, the system named is E. coli (KCTC 1682). The note with it: 1% peptone, 2 × 10^6 CFU/mL, 16 h, 37 °C. As to the method:
as §1, §2, §3

The test system of data set [1] is MDRAB 12035 (MDR A. baumannii CCARM 12035). The note with it: 1% peptone, 2 × 10^6 CFU/mL, 16 h, 37 °C. As to the method: as §1, §2, §3
The test system of data set [2] is MDREC 1229 (MDR E. coli CCARM 1229). The note with it: 1% peptone, 2 × 10^6 CFU/mL, 16 h, 37 °C. As to the method:
as §1, §2, §3

Data set [3] relates to MDRPA 2002 (MDR P. aeruginosa CCARM 2002). The note with it: 1% peptone, 2 × 10^6 CFU/mL, 16 h, 37 °C. As to the method: as §1, §2, §3
The test system of data set [4] is MDRST 8007 (MDR S. typhimurium CCARM 8007). The note with it: 1% peptone, 2 × 10^6 CFU/mL, 16 h, 37 °C. As to the method:
as §1, §2, §3

Another data set relates to MRSA 3126 (CCARM 3126). The note with it: 1% peptone, 2 × 10^6 CFU/mL, 16 h, 37 °C. As to the method: as §1, §2, §3
Data set [5] concerns P. aeruginosa (KCTC 2004). The following applies: 1% peptone, 2 × 10^6 CFU/mL, 16 h, 37 °C. As to the method:
as §1, §2, §3

The subject of another data set is S. aureus (KCTC 1621). The note with it: 1% peptone, 2 × 10^6 CFU/mL, 16 h, 37 °C. As to the method:
as §1, §2, §3

For data set [6], the system named is S. epidermidis (KCTC 1917). The note with it: 1% peptone, 2 × 10^6 CFU/mL, 16 h, 37 °C. As to the method: as §1, §2, §3
Data set [7] deals with S. typhimurium (KCTC 1926). The note with it: 1% peptone, 2 × 10^6 CFU/mL, 16 h, 37 °C. As to the method: as §1, §2, §3
The test system of the next data set is Gram-negative bacteria. The note with it: eight Gram-negative strains of Table 2. As to the method:
as §1
(§4) The therapeutic index (TI) was calculated (Table 2) using HC10, the peptide concentration required to induce 10% hemolysis.
as §3

Another data set has as its system Gram-positive bacteria. The note with it: four Gram-positive strains of Table 2. As to the method:
as §1, §4, §3

Data set [8] has as its system human red blood cells (hRBCs). Description: Hemolysis of human red blood cells. As to the method: as §4
The toxicity of peptides to human red blood cells (hRBCs) was determined by measuring the peptide-induced release of haem, and percent hemolysis was calculated as described previously. The peptide-induced cytotoxicity of mouse RAW 264.7 macrophages, human keratinocyte HaCaT cells, and HEK-293 cells were determined by 3-(4,5-dimethylthiazol-2-yl)-2,5-diphenyltetrazolium bromide (MTT) assays as previously described.

The test system of data set [9] is HEK-293 human embryonic kidney epithelial cells. Description: MTT cytotoxicity. The data set is classed as cell-based. The note with it: HEK-293, MTT, 50 µM. An excerpt: (§5) The toxicities of peptides against mammalian cells were checked by measuring the survival rate of mouse macrophage RAW 264.7 cells, human keratinocyte HaCaT cells, and HEK-293 human embryonic kidney epithelial (HEK-293) cells after treatment with different concentrations of peptides (Fig. 2B–D). […] Since melittin has higher hydrophobicity and a […] amphiphatic moment (µH) than those of Pap12 peptides, as listed in Table 1, its toxicity is much higher than those of Pap12 peptides.

The test system of data set [10] is human keratinocyte HaCaT cells. Description: MTT cytotoxicity. The data set is classed as cell-based. The note with it: 50 µM.
Description: as §5

Data set [11] has as its system mouse macrophage RAW 264.7 cells. Description: MTT cytotoxicity. The data set is classed as cell-based. The note with it: RAW 264.7, MTT.
Description: as §5

Data set [12] is described as follows: Survival of non-infected mice given peptide (acute toxicity). The data set is classed as in vivo, BALB/c mice. The following applies: 10 mg/kg i.p., over 4 days, 10 mice.
Description: To determine the in vivo survival rate, four groups were established with 10 BALB/c mice per group. For the control group, 10 mice were given an intraperitoneal (i.p.) injection with PBS. […] In the third group, 10 mice were i.p. injected with Pap12-6 (10 mg/kg). […] Survival was evaluated for 4 days (0, 6, 12, 18, 24, 30, 36, 48, 60, 72, 84, and 96 h).

As to RWKIFKKVVKKW-NH2 [Pap12-6], the “Minimal inhibitory concentration (MIC), A. baumannii” value with A. baumannii (KCTC 2508) was found to be 4 µM. Further, the “Minimal inhibitory concentration (MIC), B. subtilis” value in the data set with B. subtilis (KCTC 3068) turned out to be 8 µM. Besides, the “Minimal inhibitory concentration (MIC), E. coli” value with E. coli (KCTC 1682) turned out to be 4 µM. In addition, in data set [1], the “Minimal inhibitory concentration (MIC), MDRAB 12035” value stood at 4 µM. Further, in data set [2], the “Minimal inhibitory concentration (MIC), MDREC 1229” value was 8 µM. The “Minimal inhibitory concentration (MIC), MDRPA 2002” value in data set [3] was 8 µM. In [4], the “Minimal inhibitory concentration (MIC), MDRST 8007” value was 8 µM. Moreover, in the data set on MRSA 3126 (CCARM 3126), the “Minimal inhibitory concentration (MIC), MRSA 3126” value was found to be 8 µM. The “Minimal inhibitory concentration (MIC), P. aeruginosa” value in data set [5] turned out to be 4 µM. The “Minimal inhibitory concentration (MIC), S. aureus” value in the data set with S. aureus (KCTC 1621) stood at 4 µM. The “Minimal inhibitory concentration (MIC), S. epidermidis” value in data set [6] was determined as 8 µM. Further, in data set [7], the “Minimal inhibitory concentration (MIC), S. typhimurium” value is 8 µM. Besides, in the data set on Gram-negative bacteria, the “GM, geometric mean of MICs, Gram-negative bacteria” value worked out at 6 µM. The “GM, geometric mean of MICs, Gram-positive bacteria” value in the data set with Gram-positive bacteria was determined as 7 µM. For the same substance, in [8], the “HC10, peptide concentration resulting in 10% hemolysis of fresh human erythrocytes” value was 100 µM. Further, the “cytotoxicity (in words)” value in data set [9] and in data set [10] was “no cytotoxicity” in each case. Moreover, the cell survival in data set [11] (50 µM) stood at 80%; in data set [11] (up to 25 µM), 100%. Besides, the “survival of non-infected mice (lack of acute toxicity)” value in [12] is recorded as “all mice survived”.
